Reference: ChEMBL document CHEMBL1201862, “PubChem BioAssay data set” (2004)
Activity calls are given as the source filed them.

Experiments:
[1] = system: Streptococcus sp. 'group A'; assay: Streptococcus pyogenes SK(-)GAS viability under kanamycin – luminescence, BacTiterGlo, confirmation, counter-screen for streptokinase expression inhibitor project, dose response (AID 1900); assay type: functional, organism-based
Streptococcus = assay: GAS UMAA2166 growth inhibition – luminescence, BacTiterGlo, counter-screen for streptokinase expression inhibitor project, dose response (AID 1915); assay type: functional, organism-based;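 also: potency for reduction of bacterial viability or growth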
[2] = target: T1, Short transient receptor potential channel 4 (Mus musculus, UniProt Q9QUQ5); assay: calcium entry via TRPC4 opening agents – cell-based, HEK293 TRPC4/mu-opioid, Fluo-4 calcium, dose response (AID 434937); assay type: functional
T1 sequence (Q9QUQ5 whole entry): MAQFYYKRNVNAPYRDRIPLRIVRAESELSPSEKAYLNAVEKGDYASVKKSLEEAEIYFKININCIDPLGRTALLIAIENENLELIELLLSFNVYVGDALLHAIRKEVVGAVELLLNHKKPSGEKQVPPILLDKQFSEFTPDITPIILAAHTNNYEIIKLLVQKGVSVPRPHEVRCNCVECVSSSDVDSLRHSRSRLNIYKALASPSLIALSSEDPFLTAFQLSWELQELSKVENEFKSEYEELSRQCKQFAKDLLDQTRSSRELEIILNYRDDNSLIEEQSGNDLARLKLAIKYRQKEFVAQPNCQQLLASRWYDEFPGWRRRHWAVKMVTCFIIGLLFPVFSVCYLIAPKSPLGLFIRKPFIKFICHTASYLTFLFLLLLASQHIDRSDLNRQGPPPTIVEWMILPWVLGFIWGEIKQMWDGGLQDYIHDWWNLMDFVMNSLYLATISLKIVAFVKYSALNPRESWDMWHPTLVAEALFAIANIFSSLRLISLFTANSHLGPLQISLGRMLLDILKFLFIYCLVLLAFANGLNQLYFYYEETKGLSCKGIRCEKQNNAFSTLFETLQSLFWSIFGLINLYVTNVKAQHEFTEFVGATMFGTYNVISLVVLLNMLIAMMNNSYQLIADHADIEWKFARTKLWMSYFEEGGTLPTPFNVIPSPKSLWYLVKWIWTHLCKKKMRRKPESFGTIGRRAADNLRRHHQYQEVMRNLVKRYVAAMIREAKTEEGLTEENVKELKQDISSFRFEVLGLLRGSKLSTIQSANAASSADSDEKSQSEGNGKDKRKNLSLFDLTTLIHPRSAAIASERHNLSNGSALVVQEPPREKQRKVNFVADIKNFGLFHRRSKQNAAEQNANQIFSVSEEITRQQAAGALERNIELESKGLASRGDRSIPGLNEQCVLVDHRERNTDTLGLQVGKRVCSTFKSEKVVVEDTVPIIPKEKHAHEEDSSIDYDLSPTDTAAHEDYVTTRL

[3] = target: FAD-linked sulfhydryl oxidase ALR (Homo sapiens, UniProt P55789); assay: ALR-catalysed DTT oxidation blockers – biochemical, H2O2 detection, luminescence, cherry-pick, dose response (AID 493248)
Protein skinhead-1 = target: T2, Protein skinhead-1 (Caenorhabditis elegans, UniProt P34707); assay type: functional
T2 sequence (P34707 whole entry): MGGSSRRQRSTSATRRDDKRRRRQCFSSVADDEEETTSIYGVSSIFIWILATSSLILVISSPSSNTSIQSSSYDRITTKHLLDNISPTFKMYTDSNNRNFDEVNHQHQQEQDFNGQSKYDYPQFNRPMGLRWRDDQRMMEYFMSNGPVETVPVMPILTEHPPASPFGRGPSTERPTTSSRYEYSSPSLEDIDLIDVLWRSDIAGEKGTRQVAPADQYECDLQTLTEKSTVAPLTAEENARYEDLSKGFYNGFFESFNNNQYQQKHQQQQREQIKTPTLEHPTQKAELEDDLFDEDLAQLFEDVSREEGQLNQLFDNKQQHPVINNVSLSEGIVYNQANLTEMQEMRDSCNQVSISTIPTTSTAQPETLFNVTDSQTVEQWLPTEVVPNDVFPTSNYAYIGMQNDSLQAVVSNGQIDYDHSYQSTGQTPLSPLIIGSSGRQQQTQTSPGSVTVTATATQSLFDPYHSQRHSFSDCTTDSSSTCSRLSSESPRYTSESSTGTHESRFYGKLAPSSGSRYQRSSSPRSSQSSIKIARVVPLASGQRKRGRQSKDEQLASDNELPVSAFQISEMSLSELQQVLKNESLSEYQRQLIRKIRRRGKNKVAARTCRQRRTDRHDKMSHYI

[4] = target: T3, High affinity choline transporter 1 (Homo sapiens, UniProt Q9GZV3); assay: human choline transporter blockers, potency – cell-based, 5-point CRC, membrane potential dye, dose response (AID 504840); assay type: functional
T3 sequence (Q9GZV3 whole entry): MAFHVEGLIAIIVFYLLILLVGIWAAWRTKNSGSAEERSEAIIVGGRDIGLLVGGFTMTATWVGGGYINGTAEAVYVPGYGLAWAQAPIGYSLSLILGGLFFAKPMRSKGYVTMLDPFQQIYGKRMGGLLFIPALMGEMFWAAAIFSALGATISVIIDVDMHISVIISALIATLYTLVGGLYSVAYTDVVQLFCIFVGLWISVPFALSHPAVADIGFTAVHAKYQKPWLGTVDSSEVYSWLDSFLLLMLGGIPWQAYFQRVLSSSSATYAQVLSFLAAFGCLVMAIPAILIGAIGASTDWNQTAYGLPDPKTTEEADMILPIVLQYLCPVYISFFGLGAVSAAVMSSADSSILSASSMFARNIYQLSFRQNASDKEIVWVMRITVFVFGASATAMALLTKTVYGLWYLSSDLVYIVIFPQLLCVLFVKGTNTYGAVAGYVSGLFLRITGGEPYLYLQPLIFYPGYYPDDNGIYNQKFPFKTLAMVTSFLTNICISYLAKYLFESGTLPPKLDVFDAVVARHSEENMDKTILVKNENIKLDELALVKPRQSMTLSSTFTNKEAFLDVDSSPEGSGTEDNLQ

cells [5] = assay type: functional, cell-based
cells [6] = assay type: functional, cell-based; remark: listed apart in the source
[7] = target: T4, Polyadenylate-binding protein 1 (Homo sapiens, UniProt P11940); assay: MLLE binding blockers, Cy5 peptide tracer – biochemical, fluorescence polarization, Cy5-PAM2 peptide, secondary, miRNA deadenylation inhibitor project, dose response (AID 602260); assay type: functional; conditions: read-out: IC50_Mean
[8] = target: T4, Polyadenylate-binding protein 1; assay: MLLE domain peptide-binding blockers, IC50 – biochemical, fluorescence polarization, FITC-PAM2 peptide, dose response (AID 602259); assay type: functional; conditions: read-out: IC50_Mean
[9] = Trypanosoma cruzi growth suppression in host cells – NIH3T3 host cells, beta-gal luminescence, confirmation (AID 2044); assay type: functional, cell-based;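 also: intracellular parasites grown in NIH/3T3 mouse fibroblasts as host cells; luminescent beta-galactosidase reporter signal from transgenic T. cruzi replicating inside host cells; inhibitors lower the luminescence signal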
[10] = NIH3T3 cell viability loss – ATP luminescence, mouse fibroblasts, counter-screen, dose response (AID 2010); assay type: functional, cell-based;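 also: cells exposed to compound for about 90 hours before reading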
[11] = Luminescence Cell-Based Dose Retest to Confirm Inhibitors of Cancer Stem Cells. [Related pubchem assays (depositor defined):AID2717, AID2721]; assay type: functional; conditions: Homo sapiens
[12] = microbe, parasite or virus in culture; assay type: functional; conditions: Mycobacterium tuberculosis
[13] = reduction of Shn3 3'UTR-driven luciferase in osteoblasts – cell-based, Clone20 osteoblasts, firefly luciferase, cherry-picked, dose response (AID 624132); assay type: functional;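 also: firefly luciferase luminescence from reporter carrying the Shn3 3'UTR in osteoblasts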
[14] = non-specific 3'UTR reporter inhibition in Clone20-Shn3RL – cell-based, Renilla luciferase, cherry-picked, counter-screen for Shn3 inhibitor project, dose response (AID 624133); assay type: functional

Chain of FAD-linked sulfhydryl oxidase ALR (P55789 whole entry): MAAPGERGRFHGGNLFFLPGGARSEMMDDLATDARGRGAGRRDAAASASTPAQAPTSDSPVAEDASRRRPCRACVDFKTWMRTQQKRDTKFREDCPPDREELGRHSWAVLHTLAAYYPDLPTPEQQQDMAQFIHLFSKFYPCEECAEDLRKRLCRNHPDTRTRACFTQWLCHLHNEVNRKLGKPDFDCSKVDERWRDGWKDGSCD
T4 sequence (P11940 whole entry, the tested form may be a part): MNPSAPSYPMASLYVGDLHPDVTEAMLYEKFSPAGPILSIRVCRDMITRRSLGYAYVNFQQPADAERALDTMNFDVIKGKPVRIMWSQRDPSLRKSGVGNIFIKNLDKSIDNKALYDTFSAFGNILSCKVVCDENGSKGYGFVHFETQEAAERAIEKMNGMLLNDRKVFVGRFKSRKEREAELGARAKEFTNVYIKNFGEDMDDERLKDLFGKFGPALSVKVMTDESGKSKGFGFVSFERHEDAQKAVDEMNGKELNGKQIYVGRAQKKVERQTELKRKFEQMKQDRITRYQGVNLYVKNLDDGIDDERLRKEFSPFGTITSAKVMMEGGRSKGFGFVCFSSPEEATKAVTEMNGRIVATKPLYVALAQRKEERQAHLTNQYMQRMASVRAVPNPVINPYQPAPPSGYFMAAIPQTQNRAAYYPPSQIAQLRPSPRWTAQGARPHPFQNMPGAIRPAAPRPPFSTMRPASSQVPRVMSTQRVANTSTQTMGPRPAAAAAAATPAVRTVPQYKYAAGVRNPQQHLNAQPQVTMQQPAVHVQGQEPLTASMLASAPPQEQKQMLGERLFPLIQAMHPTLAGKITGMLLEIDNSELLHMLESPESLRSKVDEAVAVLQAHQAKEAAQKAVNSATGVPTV

In the case of `CCn1c(=O)c(C(=O)NNC(=O)c2ccccc2F)c(O)c2ccccc21`, the EC50 [1] is reported as 4.54 µM (active), the EC50 (Streptococcus) is reported as 11.5 µM (active) and the EC50 [2] is reported as 6.68 µM (active).
For `Cc1ccc(NC2CCCN(C(=O)c3ccc(C)c(N4CCNC4=O)c3)C2)cc1C` (stereo not given), the AC50 [3] was 3.32 µM (active).
In the case of `Cc1ccc(N/C=C/C(=O)c2cccs2)cc1C`, the IC50 (Protein skinhead-1) is reported as > 100 µM (inactive).
With `COc1cccc(OC)c1C(=O)N1CCN=C1SCc1cccnc1` the AC50 [3] was 0.043 µM (active).
For `CCCc1cc(O)c2c(C)cc(=O)oc2c1`, the IC50 [4] was 14.5 µM (active).
For `CCCCOC(=O)c1ccc(NC(=O)/C=C/c2cccs2)cc1`, the IC50 (Protein skinhead-1) was > 100 µM (inactive).
With `O=C(NC(=S)Nc1ccccn1)c1cc(-c2ccccc2)nc2ccccc12` the EC50 (cells [5]) was > 350 µM (not active) and the EC50 (cells [6]) was 47.1 µM (active).
For `O=C(NC1=NCCS1)c1csc2ccccc12`, the AC50 [3] was 0.582 µM (active), the IC50 [7] was > 66 µM (inactive) and the IC50 [8] was > 66 µM (inactive).
In the case of `CCN1CCN(CCCOc2ccc(-c3ccccc3)cc2)CC1`, the EC50 (cells [5]) is reported as > 350 µM (not active), the EC50 [9] is reported as 0.799 µM (active) and the EC50 (cells [6]) is reported as > 350 µM (not active). For the same molecule, the EC50 [10] was 4.6 µM (active) and the AC50 [11] was 4.69 µM (active).
For `CCCS(=O)(=O)N1CCC(C(=O)NCc2cccnc2)CC1`, the IC50 (Protein skinhead-1) was > 100 µM (inactive).
In the case of `CN=C(S)N=CNOCc1c(Cl)cccc1Cl`, the CC50 [12] is reported as > 40 µM (active).
For `COc1ccc(C(=O)N(C)CCCC2CCCC2)cc1OC1CCN(C(C)C)CC1`, the IC50 [4] was 12 µM (active).
With `c1ccc(CSc2ccc(-c3ccco3)nn2)cc1` the IC50 (Protein skinhead-1) was > 100 µM (inactive).
For `CN(C)C(CNC(=O)Nc1cccc(Cl)c1)c1cccnc1` (stereo not given), the EC50 [2] was 0.0267 µM (active).
With `C[C@H]1CCC/C=C/[C@@H]2C[C@H](O)C[C@H]2[C@@H](O)/C=C/C(=O)O1` the AC50 [13] was 2.17 µM (active) and the AC50 [14] was 1.7 µM (active).
For `CCN1CCN(Cc2cc(Br)cc(Br)c2O)CC1`, the EC50 [2] was 0.0667 µM (active) and the AC50 [3] was 11.2 µM (active).
For `CCn1c(=O)c(CCC(=O)N2CCN(c3ccccn3)CC2)c(C)c2c(C)nn(-c3cccc(C)c3)c21`, the EC50 [9] was 1.59 µM (active), the CC50 [12] was > 40 µM (active) and the EC50 [10] was > 60 µM (not active).
